Measured values published in US20060024414A1, “Methods for preserving food products” (Kraft Foods Holdings, Inc., priority 2004, published 2006).

Assays:
[1] = test system: Listeria monocytogenes OSY-328; assay: Inoculated bagged Vienna sausage challenge, warm enrichment/plating for survivors; type: cell-based; conditions: nisin 0 IU/g, about 5 min; for Percentage of Bags Testing Positive For Listeria in Batch of 5 (±S.D.): TBHQ 100 ppm, sausage about 10^6 CFU/g; for Percentage of Bags Testing Positive For Listeria in Batch of 3 (±S.D.): TBHQ 300 ppm, sausage about 10^6 per g
Procedure: (§1) In another embodiment, a food substrate processed according to methods of this invention has nondetectable levels of Listeria (even if contamination has occurred). […] The mixture is incubated at 37° C. for 48 hours, followed by the enrichment (mixture) being streaked on Oxford agar or […] agar, and observing the streaked plate for the presence/absence of Listeria. […] Tailing effects also may be reduced or eliminated by methods of the present invention. The presence or absence of other microorganisms may be detected using similar techniques modified for the specific microorganism under consideration. The edible hydroquinone was tert-butylhydroquinone (TBHQ) at a level of either 0 or 100 ppm. The tert-butylhydroquinone was a food grade material obtained from Sigma Chemical Co. (St. Louis, Mo.). The lantibiotic was nisin at a level of either 0 or 100 IU/g. The nisin used was either pure nisin or a commercial nisin ([…]®), both from Aplin & Barrett, Ltd. (Trowbridge, England). […] Nisin samples were prepared by dissolving nisin powder in distilled water, adjusting the pH to 2 with HCl, and sterilizing at 121° C. for 10 minutes. Samples were prepared and used on the same day for each experiment. Three strains of Listeria monocytogenes were used in these challenge studies. Listeria monocytogenes Scott A, OSY-8578, and OSY-328, were obtained from the Food Safety Laboratory of the Department of Food Science and Technology at The Ohio State University (Columbus, Ohio). All experiments were carried out with cultures in stationary phase (grown in tryptose broth (TB; Difco Laboratories, Detroit, Mich.) for 18 hours at 37° C.). […] The hydrostatic pressure used was 600 MPa. For comparison purposes, samples were also treated with no hydrostatic pressure (i.e., under atmospheric pressure). A hydrostatic food processor (Quintus QFP-6, ABB Autoclave Systems, Inc., Columbus, Ohio) was used with a pressure transmitting fluid containing a water/propylene glycol (1:1 vol/vol; Houghto-Safe 620-TY, Houghton International, Inc., Valley Forge, Pa.). Samples were held in a refrigerator before processing and placed on ice following treatment. The temperature during each run was monitored using a thermocouple and a datalogger (Campbell Scientific, Inc., Logan, Utah). […] Canned Vienna sausage (Armour®, The Dial Corporation, Scottsdale, Ariz.) was purchased from local grocery stores. […] One milliliter of each additive, alone or in combinations, was added, and the bags were sealed using vacuum […], Kansas City, Mo.). […] Non-pressurized samples were treated in a similar manner except that no pressure was applied. After high pressure processing, bags were opened aseptically. […] The presence or absence of L. monocytogenes survivors in the samples was determined by streaking the incubated mixture onto Oxford agar and/or […] agar. Each test run consisted of 5 tested bags at a given set of variables; the experiment was repeated 4 times. Treatment conditions required for essentially total elimination of L. monocytogenes were determined using essentially the same materials and procedures as used in Example 1 except that the nisin level was 0, 100, or 200 IU/g; the hydroquinone level was 0, 100, 200, or 300 ppm; and each experiment was repeated 3 times.

[2] = test system: Listeria monocytogenes OSY-8578; assay: as above; type: cell-based; conditions: nisin 0 IU/g, about 5 min; for Percentage of Bags Testing Positive For Listeria in Batch of 5 (±S.D.): TBHQ 100 ppm, sausage about 10^6 CFU/g; for Percentage of Bags Testing Positive For Listeria in Batch of 3 (±S.D.): TBHQ 300 ppm, sausage about 10^6 per g
Procedure: as §1

SMILES: CC(C)(C)c1cc(O)ccc1O [TBHQ, tert-butylhydroquinone]
- Percentage of Bags Testing Positive For Listeria in Batch of 5 (±S.D.) ([1]; Run 3: 0 MPa): 100%
- Percentage of Bags Testing Positive For Listeria in Batch of 5 (±S.D.) ([1]; Run 7: 600 MPa): 20 (±16) %
- Percentage of Bags Testing Positive For Listeria in Batch of 3 (±S.D.) ([1]; Run 10: 0 MPa): 100%
- Percentage of Bags Testing Positive For Listeria in Batch of 3 (±S.D.) ([1]; Run 15: 600 MPa): 0%
- Percentage of Bags Testing Positive For Listeria in Batch of 5 (±S.D.) ([2]; Run 3: 0 MPa): 100%
- Percentage of Bags Testing Positive For Listeria in Batch of 5 (±S.D.) ([2]; Run 7: 600 MPa): 25 (±30) %
- Percentage of Bags Testing Positive For Listeria in Batch of 3 (±S.D.) ([2]; Run 10: 0 MPa): 100%
- Percentage of Bags Testing Positive For Listeria in Batch of 3 (±S.D.) ([2]; Run 15: 600 MPa): 0%
